Results on six compounds are retold here after patent publication US10857196B2, “Bicyclic peptide ligands and uses thereof” (BicycleTx Limited, priority 2017, dated 2020).

SMILES strings stand for the structures. Numbered stars: 1 amine (or outer) side, 2 acyl side, 3 side chain; on linkers, the order of the positions; unused ones are H or OH. Bridge positions count the residues as written; N and C are the ends. Square brackets hold non-standard residues; d marks the D form. Peptide text beside a SMILES is read from it. X7 = O=S(=O)(CC[*:1])N1CCN(S(=O)(=O)CC[*:2])CCN(S(=O)(=O)CC[*:3])CC1; X1 = O=C(CC[*:1])N1CC23CN(C(=O)CC[*:2])CC2(C1)CN(C(=O)CC[*:3])C3; X9 = O=C(C[*:1])N1CCOCCN(C(=O)C[*:2])CCOCCN(C(=O)C[*:3])CCOCC1; X2 = O=C(CC[*:1])N1CCN(C(=O)CC[*:2])CCN(C(=O)CC[*:3])CC1; X5 = O=C(C[*:1])N1CCN(C(=O)C[*:2])CCN(C(=O)C[*:3])CC1; X4 = O=C(C[*:1])NCCN(CCNC(=O)C[*:2])CCNC(=O)C[*:3]; 1Nal = N[C@@H](Cc1cccc2ccccc12)C(=O)O; Tle = CC(C)(C)[C@H](N)C(=O)O

This experiment deals with MT1-MMP hemopexin domain (Homo sapiens, UniProt P50281). The experiment is described as follows: Direct binding fluorescence polarization (anisotropy) assay. Here is the method:
Direct Binding Fluorescence Polarization or Anisotropy Assays are performed by titrating a constant concentration of fluorescent tracer (here, the fluoresceinated bicyclic peptide to be studied) with its binding partner (here, the MT1-MMP hemopexin domain). As the concentration of binding partner increases during the titration, the polarization signal changes in proportion to the fraction of bound and unbound material. This allows determination of […] (Kd) quantitatively. Assay data can be fit using standard ligand binding equations.
Typically, concentrations of the tracer are ideally well below the Kd of the tracer:titrant pair, and concentrations chosen are usually at ˜1 nM or less. The titrant (binding partner) concentration is varied from 0.1 nM up to typically 5 μM. The range is chosen such that the maximum change in fluorescent polarization can be observed. Buffers employed are phosphate buffered saline in the presence of 0.01% Tween. Experiments were run in black 384 well low-bind/low volume plates (Corning 3820), and the fluorescent polarization signal was measured using a BMG Pherastar FS plate reader. Fluorescent tracers referred to in the text are bicyclic peptides that have been fluoresceinated using 5,6-carboxyfluorescein. Fluoresceination may be performed on the N-terminal amino group of the peptide, which is separated from the bicycle core sequence by a sarcosine spacer (usually Sar5). This can be done during Fmoc solid phase synthesis or post-synthetically (after cyclization with the molecular scaffold reagent and purification) if the N-terminal amino group is unique to the peptide. Fluoresceination can also be performed on the C-terminus, usually on a Lysine introduced as the first C-terminal residue, which is then separated from the bicycle core sequence by a sarcosine spacer (usually Sar6). Thus, N-terminal tracers can have a molecular format described as Fluo-Gly-Sar5-A(BicycleCoreSequence), and (BicycleCoreSequence)-A-Sar6-K(Fluo) for a C-terminally fluoresceinated construct.
Fluorescent tracers used in the Examples are A-(17-69)-A-Sar6-K(Fluo), A-(17-69-07)-A-Sar6-K(Fluo), and A-(17-69-12)-A-Sar6-K(Fluo). Due to the acidic nature of the 17-69 fluorescent peptides, they were typically prepared as concentrated DMSO stocks, from which dilution were prepared in 100 mM Tris pH 8 buffer.
Results from the direct binding fluorescence polarization (anisotropy) assays is depicted in Table 3, below. A K, value designated “A” denotes a Ki of ≤50 nM; a Ki value designated “B” denotes a Ki of >50 nM and ≤100 nM; a Ki value designated “C” denotes a Ki of >100 nM and ≤1,000 nM; and a Ki value designated “D” denotes a Ki of >1,000 nM.
A word on the Ki: it is a dissociation constant, usually derived from enzyme kinetics or from competition with a known ligand. The compound `C[C@H](N)C(=O)N[C@H]1CSCC(=O)N2CCOCCN3CCOCCN(CCOCC2)C(=O)CSC[C@H](NC(=O)[C@@H](C)NC(=O)[C@H](Cc2cccc4ccccc24)NC(=O)[C@H](CCC(=O)O)NC(=O)[C@H](CC(N)=O)NC(=O)[C@@H](C)NC1=O)C(=O)N[C@@H](CCC(=O)O)C(=O)N[C@@H](CC(=O)O)C(=O)N[C@@H](Cc1ccccc1)C(=O)N[C@@H](Cc1ccc(O)cc1)C(=O)N[C@@H](CC(=O)O)C(=O)N[C@@H](C(C)(C)C)C(=O)N[C@H](C(N)=O)CSCC3=O` [Compound I-58] (H-AC[dA]NE[1Nal][dA]CEDFYD[Tle]C-NH2; linker 2-8-15 via X9) returned a Ki of 50 to 100 nM.

Consider `C[C@H](N)C(=O)N[C@H]1CSCC(=O)N2CCN3CCN(CC2)C(=O)CSC[C@H](NC(=O)[C@@H](C)NC(=O)[C@H](Cc2cccc4ccccc24)NC(=O)[C@H](CCC(=O)O)NC(=O)[C@H](CC(N)=O)NC(=O)[C@@H](C)NC1=O)C(=O)N[C@@H](CCC(=O)O)C(=O)N[C@@H](CC(=O)O)C(=O)N[C@@H](Cc1ccccc1)C(=O)N[C@@H](Cc1ccc(O)cc1)C(=O)N[C@@H](CC(=O)O)C(=O)N[C@@H](C(C)(C)C)C(=O)N[C@H](C(N)=O)CSCC3=O` [Compound I-54] (H-AC[dA]NE[1Nal][dA]CEDFYD[Tle]C-NH2; linker 2-8-15 via X5), for which the Ki was no more than 50 nM.

In the case of `C[C@H](N)C(=O)N[C@H]1CSCCS(=O)(=O)N2CCN3CCN(CC2)S(=O)(=O)CCSC[C@@H](NC(=O)[C@@H](C)NC(=O)[C@H](Cc2cccc4ccccc24)NC(=O)[C@H](CCC(=O)O)NC(=O)[C@H](CC(N)=O)NC(=O)[C@@H](C)NC1=O)C(=O)N[C@@H](CCC(=O)O)C(=O)N[C@@H](CC(=O)O)C(=O)N[C@@H](Cc1ccccc1)C(=O)N[C@@H](Cc1ccc(O)cc1)C(=O)N[C@@H](CC(=O)O)C(=O)N[C@@H](C(C)(C)C)C(=O)N[C@H](C(N)=O)CSCCS3(=O)=O` [Compound I-59] (H-AC[dA]NE[1Nal][dA][dC]EDFYD[Tle]C-NH2; linker 2-8-15 via X7), the inhibition constant (Ki) is greater than 1000 nM.

On to `C[C@H](N)C(=O)N[C@H]1CSCCC(=O)N2CC34CN5CC3(C2)CN(C4)C(=O)CCSC[C@H](NC(=O)[C@@H](C)NC(=O)[C@H](Cc2cccc3ccccc23)NC(=O)[C@H](CCC(=O)O)NC(=O)[C@H](CC(N)=O)NC(=O)[C@@H](C)NC1=O)C(=O)N[C@@H](CCC(=O)O)C(=O)N[C@@H](CC(=O)O)C(=O)N[C@@H](Cc1ccccc1)C(=O)N[C@@H](Cc1ccc(O)cc1)C(=O)N[C@@H](CC(=O)O)C(=O)N[C@@H](C(C)(C)C)C(=O)N[C@H](C(N)=O)CSCCC5=O` [Compound I-56] (H-AC[dA]NE[1Nal][dA]CEDFYD[Tle]C-NH2; linker 2-8-15 via X1), for which the inhibition constant (Ki) lay in the range of 100 to 1000 nM.

In turn, `C[C@H](N)C(=O)N[C@H]1CSCC(=O)NCCN2CCNC(=O)CSC[C@@H](C(=O)O)NC(=O)[C@H](C(C)(C)C)NC(=O)[C@H](CC(=O)O)NC(=O)[C@H](Cc3ccc(O)cc3)NC(=O)[C@H](Cc3ccccc3)NC(=O)[C@H](CC(=O)O)NC(=O)[C@H](CCC(=O)O)NC(=O)[C@H](CSCC(=O)NCC2)NC(=O)[C@@H](C)NC(=O)[C@H](Cc2cccc3ccccc23)NC(=O)[C@H](CCC(=O)O)NC(=O)[C@H](CC(N)=O)NC(=O)[C@@H](C)NC1=O` [Compound I-60] (H-AC[dA]NE[1Nal][dA]CEDFYD[Tle]C-OH; linker 2-8-15 via X4) registered a Ki of 100 to 1000 nM.

With `C[C@H](N)C(=O)N[C@H]1CSCCC(=O)N2CCN3CCN(CC2)C(=O)CCSC[C@H](NC(=O)[C@@H](C)NC(=O)[C@H](Cc2cccc4ccccc24)NC(=O)[C@H](CCC(=O)O)NC(=O)[C@H](CC(N)=O)NC(=O)[C@@H](C)NC1=O)C(=O)N[C@@H](CCC(=O)O)C(=O)N[C@@H](CC(=O)O)C(=O)N[C@@H](Cc1ccccc1)C(=O)N[C@@H](Cc1ccc(O)cc1)C(=O)N[C@@H](CC(=O)O)C(=O)N[C@@H](C(C)(C)C)C(=O)N[C@H](C(N)=O)CSCCC3=O` [Compound I-55] (H-AC[dA]NE[1Nal][dA]CEDFYD[Tle]C-NH2; linker 2-8-15 via X2), the inhibition constant Ki fell in the range of 50 to 100 nM.
